Test system: CFLP female mice
Experiment: Reversal of Adrenaline-Exacerbated Glucose Intolerance in Mice
Format: in vivo
Settings: oral gavage, glucose 1 g/kg and adrenaline 300 μg/kg s.c., 0-120 minutes, versus water control, 24 h fasted mice
Experimental: (A) Reversal of Adrenaline-Exacerbated Glucose Intolerance in Mice
CFLP female mice of about 25 g were fasted for 24 hours prior to receiving water (10 ml/kg) or compounds by oral gavage. Thirty minutes later, glucose (1 g/kg) and adrenaline (300 μg/kg) were injected subcutaneously. Blood samples for glucose analysis were taken serially from the tail of each mouse at 0, 30, 60, 90 and 120 minutes after dosing glucose and the results are expressed below as the percentage reduction in the area under the blood glucose curve; the compound treated groups being compared to the water dosed control group. Six mice were used in each treatment group.

Row | Structure (SMILES) | % Reduction in area under Blood Glucose Curve (20 μmol/kg) [%] | % Reduction in area under Blood Glucose Curve (10 μmol/kg) [%]
1 | Clc1ccc2c(c1)CN(CC1=NCCN1)C2 [Example 3, 2-[2H-(5-Chloro-1,3-dihydroisoindole)methyl]-4,5-dihydroimidazole] | 44 | –
2 | Clc1cccc2c1CN(CC1=NCCN1)C2 [Example 2, 2-[2H-(4-Chloro-1,3-dihydroisoindole)methyl]-4,5-dihydroimidazole] | – | 24
3 | c1ccc2c(c1)CN(CC1=NCCN1)C2 [Example 1, 2-[2H-(1,3-Dihydroisoindole)methyl]-4,5-dihydroimidazole] | – | 40

Reference: patent US4959374A, “Novel compounds” (Beecham Group P.L.C., priority 1989, dated 1990)
